For one test, the system named is food-deprived mice. The test can be described thus: Feeding tests in food-deprived lean mice. To be noted: for Food intake: IP administration, food-deprived mice. In kind it is in vivo.
In test [1] the test system is lean mice under a high-fat diet. How it is done:
Male mice of the ddy strain (34-37 g, JAPAN SLC, Shizuoka, Japan) and obese (ob/ob) C57BL/6J mice (68-74 g, Shionogi Co., Ltd., Shiga, Japan) were used. They were individually housed in a regulated environment (22±2° C., 55±10% humidity, 12:12 hour light:dark cycle with light on at 7:00 AM). Mice received a standard diet containing 12% of total energy as fat or a high-fat diet containing 45% of total energy as fat (CLEA Japan, INC., Tokyo, Japan). Food and water were available ad lib except as otherwise indicated. All experiments were approved by Kobe University animal care committee.
[D-Lys-3]-GHRP-6, [D-Arg-1, D-Phe-5, D-Trp-7, 9, Leu-11] substance P and rat ghrelin were purchased from BACHEM CALIFORNIA INC. (Torrance, Calif., USA), NEOSYSTEM (Strasbourg, France) and Peptide Institute (Osaka, Japan), respectively. Just before administration, each drug was diluted in 4 μl of artificial cerebrospinal fluid (ACSF) for intra-third cerebroventricular (ICV) administration or in 100 μl of physiological saline for intraperitoneal (IP) administration. Results are expressed as mean value±s.e.m. Analysis of variance(ANOVA) followed by Bonferroni's t test was used to assess the differences among groups. P<0.05 was considered to be statistically significant.
(§1) Repeated IP administrations were continued for five days in lean mice under a high-fat diet or a standard diet, and for six days in […] obese mice under a standard diet, respectively. The mice were given the administration at 7:00 AM and 19:00 PM. Food intake and body weight were measured daily. Serum was separated from blood obtained from the orbital sinus under ether anesthesia at the end of the experiment (eight hours after removal of food and the final IP administration). Mice were killed by cervical dislocation. Immediately after that, the epididymal fat pad mass assessed as white adipose tissue (WAT) and the gastrocnemius muscle were removed and weighed. Blood glucose was measured by the glucose oxidase method. Serum insulin and free fatty acids (FFA) were measured by enzyme immunoassay and enzymatic method (EIKEN CHEMICAL CO., LTD., Tokyo, Japan), respectively. Serum triglycerides and total cholesterol were measured by an enzymatic method (Wako Pure Chemical Industries, Ltd., Tokyo, Japan).
(§2) Subsequently, mRNA levels of leptin, adiponectin and resistin in WAT were assessed.

In test [2] the test system is leptin and resistin mRNA in WAT. To be noted: repeated IP administrations of ghrelin. As to the method: as §1, §2
In another test the target is T1, GHS-R in the brain (Mus musculus, UniProt Q99P50).
T1 construct: possibility that ghrelin would act through GHS-R in the brain; from tissue; host or cells: brain of living mice (ICV administration)
T1 sequence (Q99P50 whole entry): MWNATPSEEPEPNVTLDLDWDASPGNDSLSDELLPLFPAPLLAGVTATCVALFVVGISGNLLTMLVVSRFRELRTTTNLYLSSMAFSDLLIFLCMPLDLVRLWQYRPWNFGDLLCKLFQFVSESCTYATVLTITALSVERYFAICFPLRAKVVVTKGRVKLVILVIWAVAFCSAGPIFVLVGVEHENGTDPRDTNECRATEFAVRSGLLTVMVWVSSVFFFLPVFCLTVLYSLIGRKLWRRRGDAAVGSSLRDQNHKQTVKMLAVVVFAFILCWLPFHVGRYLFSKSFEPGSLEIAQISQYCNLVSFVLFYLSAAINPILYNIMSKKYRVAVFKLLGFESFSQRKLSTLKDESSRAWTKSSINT
As to the kind of experiment: Simultaneous administration of ghrelin (IP) and [D-Lys-3]-GHRP-6 (ICV), food intake. In kind it is in vivo, mice. The settings on record: free access to food. How it is done:
For ICV administration, the mice were anesthetized with sodium pentobarbital (80-85 mg/kg IP) and placed in a stereotaxic instrument (SR-6, Narishige, Tokyo, Japan) seven days before the experiments. A hole was made in each skull by using a needle inserted 0.9 mm lateral to the central suture and 0.9 mm posterior to the bregma. A 24-gauge cannula (Safelet-Cas, Nipro, Osaka, Japan) beveled at one end over a distance of 3 mm was implanted into the third cerebral ventricle for ICV administration. The cannula was fixed to the skull with dental cement and capped with silicon. A 27-gauge injection insert was attached to a microsyringe by PE-20 tubing.
Before feeding tests, mice were food deprived for 16 hours with free access to water, except during an experiment on the effect of co-administration of [D-Lys-3]-GHRP-6 and ghrelin on food intake, in which mice were given free access to food and water. Food intake was measured by subtracting uneaten food from the initially pre-measured food at 20 minutes, 1, 2 and 4 hours after administration.
In order to evaluate the possibility that ghrelin would act through GHS-R in the brain, the inventors examined the effects of simultaneous administration of ghrelin and [D-Lys-3]-GHRP-6 on food intake.

The next test deals with GHS-R (Rattus norvegicus, UniProt O08725). The settings on record: CHO cells having GHS-R expressed, chemically synthesized ghrelin; cited from earlier work.
Chain of GHS-R (O08725 whole entry): as the sequence (Q99P50 whole entry) above, with S30P, S249A counted along it
In another test the test system is pituitary gland cells. To be noted: primary culture of pituitary gland cells; cited from earlier work.
In another test the test system is rats. To be noted: rats in vivo; cited from earlier work.
Test [3] deals with gastric emptying rate in mice. The test can be described thus: Gastric emptying. The format is in vivo. To be noted: IP, one hour after administration. As to the method:
Before the experiments on gastric emptying, mice were food deprived for 16 hours with free access to water. The fasted mice had free access to pre-weighed pellets for one hour and were then administered [D-Lys-3]-GHRP-6. The mice were deprived of food again for one or two hours after administration. Food intake was measured by weighing the uneaten pellets. Mice were killed by cervical dislocation two or three hours after the start of the experiments. Immediately after that, the stomach was exposed by laparotomy, quickly ligated at both the pylorus and cardia, then removed, and its dry content was weighed. Gastric emptying was calculated according to the following formula: gastric emptying (%)={1−(dry weight of food recovered from the stomach/weight of food intake)}×100. (8) Repeated Administration

For test [4], the system named is mice with diet-induced obesity. As to the kind of experiment: Feeding test in mice with diet-induced obesity. To be noted: IP, acute. The format is in vivo.
For a further test, the system named is ob/ob mice. The test can be described thus: Feeding test in ob/ob mice. In kind it is in vivo. The settings on record: IP.
Another test relates to ob/ob obese mice. The test can be described thus: Repeated IP administration of [D-Lys-3]-GHRP-6 in ob/ob obese mice. The format is in vivo.
For test [5] the following is noted: rat des-Gln14-ghrelin; cited from earlier work.
The mark [6] stands for this setting: HF diet, every 12 hours for 5 days, lean mice, mean ± s.e.m.
Where [7] appears, read: IP 3 nmol/mouse twice daily for five days.
The mark [8] stands for this setting: IP 3 nmol/mouse twice daily for five days, high-fat diet.
Setting [9] is: 20 nmol IP every 12 hours for 6 days.
Setting [10] is: 200 nmol IP every 12 hours for 6 days.

No end group written: not given here.

“[D-Arg-1, D-Phe-5, D-Trp-7, 9, Leu-11] substance P”: in the test with food-deprived mice, the Food intake entry is recorded as “significantly reduced food intake in a dose-dependent manner”.

Take ghrelin: in test [1] (setting [6]), the Calorie intake was determined as 25.94 ± 2.562 kcal/day, the Cholesterol was found to be 224.8 ± 19.69 mg/dL, the “Fat pad mass (epididymal)” value amounted to 1.202 ± 0.175 g and the Free fatty acids amounted to 1.636 ± 0.047 meq/l. In addition, in [1] (setting [6]), the “Glucose (blood)” value came out at 160.5 ± 8.977 mg/dL, the Insulin came to 2.520 ± 0.945 ng/mL, the “Skeletal muscle (gastrocnemius)” value was 0.340 ± 0.005 g and the Triglycerides is 32.80 ± 7.965 mg/dL. In test [1] (setting [7]), the “Fat pad mass increase compared with saline-treated mice fed high-fat diet” value was found to be 125% and the “Fat pad mass increase compared with saline-treated mice fed standard diet” value is on record as 49%. For the same substance, in test [1] (setting [8]), the Blood glucose concentrations result is reported as “moderate increase”, the Body weight gain result is given as “increased significantly”, the Daily energy intake entry was “concomitant increase” and the Serum cholesterol level result is listed as “also increased”. Moreover, in [1] (setting [8]), the Serum insulin level result is listed as “also increased” and the Skeletal muscle weight entry is “did not show any increase in weight”. Moreover, in test [2], the “Leptin mRNA expression in WAT” value was “increased” and the “Resistin mRNA expression in WAT” value was “reducing”. Further, at GHS-R in the brain, the “Feeding after IP ghrelin” value is given as “stimulatory effects on the feeding”. Besides, the “Amount having the activity of elevating intracellular Ca++” value at GHS-R is “nanomolar order”. In the test with pituitary gland cells, the Growth hormone release result was “activity of releasing growth hormone”. Also, the “Growth hormone in the blood” value with rats is given as “elevates growth hormone in the blood”.

Consider [D-Lys-3]-GHRP-6, for which the Feeding behavior result in the test on food-deprived mice (ICV administration) is on record as “potent decrease in feeding behavior”. Further, the Food intake entry with food-deprived mice is reported as “significantly reduced food intake in a dose-dependent manner”. The “Effect on feeding induced by IP administration of ghrelin” value on GHS-R in the brain ([D-Lys-3]-GHRP-6 ICV) was “abolished the stimulatory effects on the feeding”. In addition, the Gastric emptying rate result in test [3] is “significant decrease in the gastric emptying rate”. Moreover, in [4], the Body weight gain entry was “resulting decrease in body weight gain” and the Food intake result is listed as “decreased potently”. In the test with ob/ob mice, the Food intake result is on record as “significantly reduced food intake in ob/ob mice”. Further, in the test on ob/ob obese mice (setting [9]), the Cholesterol came to 219.0 ± 11.24 mg/dL, the “Fat pad mass (epididymal)” value was found to be 0.897 ± 0.169 g, the Food intake amounted to 4.527 ± 0.261 g/day and the Free fatty acids worked out at 2.036 ± 0.121 meq/l. Also, in the test on ob/ob obese mice (setting [9]), the “Glucose (blood)” value came to 217.3 ± 27.90 mg/dL, the Insulin stood at 41.61 ± 10.85 ng/mL, the “Skeletal muscle (gastrocnemius)” value is 0.314 ± 0.009 g and the Triglycerides came to 38.57 ± 3.551 mg/dL. Besides, in the test on ob/ob obese mice (setting [10]), the Cholesterol is 228.4 ± 21.84 mg/dL, the “Fat pad mass (epididymal)” value is 0.860 ± 0.086 g, the Food intake was found to be 4.285 ± 0.298 g/day and the Free fatty acids is listed as 1.646 ± 0.078 meq/l. Further, in the test on ob/ob obese mice (setting [10]), the “Glucose (blood)” value turned out to be 134.9 ± 19.47 mg/dL, the Insulin is 36.54 ± 8.695 ng/mL, the “Skeletal muscle (gastrocnemius)” value was found to be 0.326 ± 0.013 g and the Triglycerides stood at 41.14 ± 5.990 mg/dL. Moreover, in the test with ob/ob obese mice (repeated administrations), the Blood glucose concentrations result was “significantly lowered”, the Body weight gain result is “significantly lowered”, the Muscle weight result is listed as “without reducing the muscle weight” and the “Reduction of FFA levels compared with physiological saline-treated ob/ob mice” value was 24%.

For the substance “des-Gln14-ghrelin: ghrelin analog in which Gln 14 in ghrelin is deleted (GSSFLSPEHQKAQRKESKKPPAKLQPR; ends and bridges not checked; UniProt Q9QYH7 24-51, looked up, variant Q14*)”, the “Growth hormone releasing activity relative to ghrelin” value in test [5] is reported as “the same intensity of growth hormone releasing activity”.

Source of the values: patent US20060276381A1, “Remedy for diabetes” (Chugai Seiyaki Kabushiki Kaisha, priority 2002, published 2006).
